Literature values, collected in US8609693B2, “Methods of administration of thrombopoietin agonist compounds” (GlaxoSmithKline LLC, priority 2009, dated 2013).

Test system: platelet counts
Details: 50 mg, 75 mg and 100 mg dose; patients receiving carboplatin/paclitaxel

CC1=NN(c2ccc(C)c(C)c2)C(=O)/C1=N\Nc1cccc(-c2cccc(C(=O)O)c2)c1O [Compound B, 3′-[(2Z)-[1-(3,4-dimethylphenyl)-1,5-dihydro-3-methyl-5-oxo-4H-pyrazol-4-ylidene]hydrazino]-2′-hydroxy-[1,1′-biphenyl]-3-carboxylic acid]
target platelet improvement counts: not meet the target platelet improvement counts
